Results: PubChem BioAssay (NCI)
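Where inhibition never reached the appropriate level, the endpoint shown equals the highest concentration tested. Otherwise, values were interpolated linearly from a five-concentration, 48-hour dose response in 96-well plates. TGI marks complete inhibition of growth.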

Legend:
Assay in all cases: growth of human tumour cells (NCI), 48 h
HCC-2998 colon = tested on: HCC-2998 colon
HL-60(TB) leukemia = tested on: HL-60(TB) leukemia
IGROV1 ovarian = tested on: IGROV1 ovarian
M14 melanoma = tested on: M14 melanoma
MOLT-4 leukemia = tested on: MOLT-4 leukemia
OVCAR-5 ovarian = tested on: OVCAR-5 ovarian
OVCAR-8 ovarian = tested on: OVCAR-8 ovarian
T-47D breast = tested on: T-47D breast

In the case of `Cc1cc(Cc2cc(C)c(NC(=O)C(=O)C3CCC4=C(SC5C=CC=CC5N4)C3=O)c(C(C)C)c2)cc(C(C)C)c1NC(=O)C(=O)C1CCC2=C(SC3C=CC=CC3N2)C1=O` (configuration not stated), the TGI (HCC-2998 colon) was greater than 100 µM, the TGI (HL-60(TB) leukemia) was greater than 100 µM and the TGI (IGROV1 ovarian) was greater than 100 µM. For the same compound, the TGI (M14 melanoma) was greater than 100 µM, the TGI (MOLT-4 leukemia) was greater than 100 µM and the TGI (OVCAR-5 ovarian) was greater than 100 µM. The TGI (OVCAR-8 ovarian) was greater than 100 µM and the TGI (T-47D breast) was greater than 100 µM.

For `OC(c1ccc(C(F)(F)F)cc1)C(F)(F)c1nc2ccccc2o1` (configuration not stated), the TGI (HCC-2998 colon) was greater than 100 µM, the TGI (HL-60(TB) leukemia) was greater than 100 µM and the TGI (IGROV1 ovarian) was greater than 100 µM. For the same compound, the TGI (M14 melanoma) was greater than 100 µM, the TGI (MOLT-4 leukemia) was greater than 100 µM and the TGI (OVCAR-8 ovarian) was greater than 100 µM. It also gave a TGI (T-47D breast) greater than 100 µM.

`O=c1[nH]nc(Cc2c[nH]c3ccccc23)o1` was tested, and the TGI (HCC-2998 colon) was greater than 100 µM, the TGI (HL-60(TB) leukemia) was greater than 100 µM and the TGI (IGROV1 ovarian) was greater than 100 µM. For the same compound, the TGI (M14 melanoma) was greater than 100 µM, the TGI (MOLT-4 leukemia) was greater than 100 µM and the TGI (OVCAR-5 ovarian) was greater than 100 µM. For the same compound, the TGI (OVCAR-8 ovarian) was greater than 100 µM and the TGI (T-47D breast) was greater than 100 µM.

With `N#CC(=N)c1ncn(-c2ccc(N)cc2)c1N` the TGI (HCC-2998 colon) was greater than 100 µM, the TGI (HL-60(TB) leukemia) was greater than 100 µM and the TGI (IGROV1 ovarian) was greater than 100 µM. The TGI (M14 melanoma) was greater than 100 µM, the TGI (MOLT-4 leukemia) was greater than 100 µM and the TGI (OVCAR-5 ovarian) was greater than 100 µM. For the same compound, the TGI (OVCAR-8 ovarian) was greater than 100 µM and the TGI (T-47D breast) was greater than 100 µM.

Compound `COc1ccc(Cc2nnc(Nc3ccc(Br)cc3)[nH]c2=O)cc1OC` has a TGI (HCC-2998 colon) greater than 100 µM, a TGI (HL-60(TB) leukemia) greater than 100 µM and a TGI (IGROV1 ovarian) greater than 100 µM. For the same compound, the TGI (M14 melanoma) was greater than 100 µM, the TGI (MOLT-4 leukemia) was greater than 100 µM and the TGI (OVCAR-5 ovarian) was greater than 100 µM. For the same compound, the TGI (OVCAR-8 ovarian) was greater than 100 µM and the TGI (T-47D breast) was greater than 100 µM.

In the case of `CC1(C)OC(=O)N(c2ccccc2)C12C=Cc1cccc([N+](=O)[O-])c1O2` (configuration not stated), the TGI (HCC-2998 colon) was greater than 100 µM, the TGI (HL-60(TB) leukemia) was 58.7 µM and the TGI (IGROV1 ovarian) was greater than 100 µM. The TGI (M14 melanoma) was greater than 100 µM, the TGI (MOLT-4 leukemia) was 74.1 µM and the TGI (OVCAR-5 ovarian) was greater than 100 µM. The TGI (OVCAR-8 ovarian) was greater than 100 µM and the TGI (T-47D breast) was 94.9 µM.

Work on `COc1cc(/C=N/n2c(-c3ccccc3)nn(C(C)=O)c2=O)cc(OC)c1OC` yielded a TGI (HCC-2998 colon) of 16.3 µM, a TGI (HL-60(TB) leukemia) of 9.68 µM and a TGI (IGROV1 ovarian) greater than 100 µM. For the same compound, the TGI (M14 melanoma) was greater than 58.9 µM, the TGI (MOLT-4 leukemia) was greater than 52.7 µM and the TGI (OVCAR-5 ovarian) was greater than 92.6 µM. For the same compound, the TGI (OVCAR-8 ovarian) was greater than 82.2 µM and the TGI (T-47D breast) was greater than 100 µM.

With `COc1ccc(N2C(=O)C3c4[nH]c5ccc(Br)cc5c4C4CCC(C(C)(C)C)CC4C3C2=O)cc1` (configuration not stated) the TGI (HCC-2998 colon) was greater than 100 µM, the TGI (HL-60(TB) leukemia) was greater than 100 µM and the TGI (IGROV1 ovarian) was greater than 100 µM. It also gave a TGI (M14 melanoma) greater than 100 µM, a TGI (MOLT-4 leukemia) greater than 100 µM and a TGI (OVCAR-5 ovarian) greater than 100 µM. The TGI (OVCAR-8 ovarian) was greater than 100 µM.

In the case of `Cc1c2c(c(O)c3c(O)cccc13)C(=O)C1(O)C(O)=C(C(=O)NCNc3ccc(C(N)=O)cn3)C(=O)C(N(C)C)C1C2` (configuration not stated), the TGI (HCC-2998 colon) was 8.66 µM, the TGI (IGROV1 ovarian) was 6.27 µM and the TGI (M14 melanoma) was greater than 100 µM. It also gave a TGI (MOLT-4 leukemia) of 9.41 µM, a TGI (OVCAR-5 ovarian) of 34.2 µM and a TGI (OVCAR-8 ovarian) of 35.5 µM. For the same compound, the TGI (T-47D breast) was greater than 100 µM.

`N#Cc1c(-c2ccc(Cl)cc2)[nH]c(=O)n(C2OC(CO)C(O)C(O)C2O)c1=O` (configuration not stated) showed a TGI (HCC-2998 colon) greater than 100 µM, a TGI (HL-60(TB) leukemia) greater than 100 µM and a TGI (IGROV1 ovarian) greater than 100 µM. For the same compound, the TGI (M14 melanoma) was greater than 100 µM, the TGI (MOLT-4 leukemia) was greater than 100 µM and the TGI (OVCAR-5 ovarian) was greater than 100 µM. It also gave a TGI (OVCAR-8 ovarian) greater than 100 µM and a TGI (T-47D breast) greater than 100 µM.

`CN(/N=C/c1cccc2cccnc12)c1ccc(Cl)cc1[N+](=O)[O-]` gave a TGI (HCC-2998 colon) greater than 100 µM, a TGI (HL-60(TB) leukemia) greater than 100 µM and a TGI (IGROV1 ovarian) greater than 100 µM. For the same compound, the TGI (M14 melanoma) was greater than 100 µM, the TGI (MOLT-4 leukemia) was greater than 100 µM and the TGI (OVCAR-5 ovarian) was greater than 100 µM. For the same compound, the TGI (OVCAR-8 ovarian) was greater than 100 µM.

`CN(C)CCn1c(=O)c2ccc(NCCN3CCNCC3)c3c(=O)c4ccccc4n(c1=O)c23` showed a TGI (HCC-2998 colon) of 12.8 µM, a TGI (HL-60(TB) leukemia) of 18.4 µM and a TGI (IGROV1 ovarian) of 12.1 µM. It also gave a TGI (M14 melanoma) of 29 µM, a TGI (MOLT-4 leukemia) of 0.147 µM and a TGI (OVCAR-5 ovarian) of 42.1 µM. The TGI (OVCAR-8 ovarian) was 31.4 µM and the TGI (T-47D breast) was 28.9 µM.

`COc1cc(C2c3cc4c(cc3OC(NNS(=O)(=O)c3ccc(C)cc3)C2C)OCO4)cc(OC)c1O` (configuration not stated) showed a TGI (HCC-2998 colon) greater than 100 µM, a TGI (HL-60(TB) leukemia) of 35.4 µM and a TGI (IGROV1 ovarian) of 30.8 µM. For the same compound, the TGI (M14 melanoma) was 58.2 µM, the TGI (MOLT-4 leukemia) was 49.5 µM and the TGI (OVCAR-5 ovarian) was greater than 100 µM. It also gave a TGI (OVCAR-8 ovarian) greater than 100 µM and a TGI (T-47D breast) greater than 100 µM.

`O=C1CSC(c2ccccc2[N+](=O)[O-])N1c1ccc(-c2ccc(-n3c(-c4ccccc4)nc4ccccc4c3=O)cc2)cc1` (configuration not stated) showed a TGI (HCC-2998 colon) greater than 100 µM, a TGI (HL-60(TB) leukemia) greater than 100 µM and a TGI (IGROV1 ovarian) greater than 100 µM. The TGI (M14 melanoma) was greater than 100 µM, the TGI (MOLT-4 leukemia) was greater than 100 µM and the TGI (OVCAR-5 ovarian) was greater than 100 µM. For the same compound, the TGI (OVCAR-8 ovarian) was greater than 100 µM and the TGI (T-47D breast) was greater than 100 µM.

`COc1cc(NCCC2CCCCN2)c2ncccc2c1` (configuration not stated) showed a TGI (HCC-2998 colon) of 30.7 µM, a TGI (HL-60(TB) leukemia) of 19.1 µM and a TGI (IGROV1 ovarian) greater than 100 µM. The TGI (M14 melanoma) was 44.9 µM, the TGI (MOLT-4 leukemia) was greater than 68.6 µM and the TGI (OVCAR-5 ovarian) was greater than 100 µM. It also gave a TGI (OVCAR-8 ovarian) greater than 100 µM and a TGI (T-47D breast) of 4.83 µM.

`NC(=O)NCCCC(NC(=O)OCCCCCCn1ccc(=O)[nH]c1=O)C(=O)O` (configuration not stated) showed a TGI (HCC-2998 colon) greater than 100 µM, a TGI (HL-60(TB) leukemia) greater than 100 µM and a TGI (IGROV1 ovarian) greater than 100 µM. The TGI (M14 melanoma) was greater than 100 µM, the TGI (MOLT-4 leukemia) was greater than 100 µM and the TGI (OVCAR-5 ovarian) was greater than 100 µM. It also gave a TGI (OVCAR-8 ovarian) greater than 100 µM and a TGI (T-47D breast) greater than 100 µM.

Work on `NC(=O)Cc1nc2c(N)ncnc2n1C1OC(CO)C(O)C1O` (configuration not stated) yielded a TGI (HCC-2998 colon) greater than 100 µM, a TGI (HL-60(TB) leukemia) greater than 100 µM and a TGI (IGROV1 ovarian) greater than 100 µM. It also gave a TGI (M14 melanoma) greater than 100 µM, a TGI (MOLT-4 leukemia) greater than 100 µM and a TGI (OVCAR-8 ovarian) greater than 100 µM. It also gave a TGI (T-47D breast) greater than 100 µM.

Work on `CC(=O)O[C@H]1CC[C@@]2(C)C(=CC[C@@H]3[C@@H]2CC[C@]2(C)c4c(C)nn(-c5ccccc5)c4C[C@@H]32)C1` yielded a TGI (HCC-2998 colon) of 30.6 µM, a TGI (HL-60(TB) leukemia) of 77 µM and a TGI (IGROV1 ovarian) greater than 100 µM. It also gave a TGI (M14 melanoma) greater than 100 µM, a TGI (MOLT-4 leukemia) greater than 100 µM and a TGI (OVCAR-5 ovarian) of 68.1 µM. The TGI (OVCAR-8 ovarian) was greater than 100 µM and the TGI (T-47D breast) was greater than 100 µM.

Compound `O=C(c1ccccc1)c1ccc2[nH]c(-c3c(Cl)c(Cl)c(Cl)c(Cl)c3C(=O)N/N=C/c3cccc(Oc4ccccc4)c3)nc2c1` has a TGI (HL-60(TB) leukemia) greater than 100 µM, a TGI (IGROV1 ovarian) greater than 100 µM and a TGI (M14 melanoma) greater than 100 µM. It also gave a TGI (MOLT-4 leukemia) greater than 100 µM, a TGI (OVCAR-5 ovarian) greater than 100 µM and a TGI (OVCAR-8 ovarian) greater than 100 µM. For the same compound, the TGI (T-47D breast) was greater than 100 µM.

Work on `CCOC(=O)C(Cc1ccc(OC(=O)c2ccc(OC)cc2)cc1)NC(=O)C(F)(F)F` (configuration not stated) yielded a TGI (HCC-2998 colon) greater than 100 µM, a TGI (HL-60(TB) leukemia) greater than 100 µM and a TGI (IGROV1 ovarian) greater than 100 µM. It also gave a TGI (M14 melanoma) greater than 100 µM, a TGI (MOLT-4 leukemia) greater than 100 µM and a TGI (OVCAR-5 ovarian) greater than 100 µM. The TGI (OVCAR-8 ovarian) was greater than 100 µM and the TGI (T-47D breast) was greater than 100 µM.

For `O=[N+]([O-])C(=C(N1CCOCC1)N1CCOCC1)/C(Cl)=C(\Cl)Br`, the TGI (HCC-2998 colon) was greater than 100 µM, the TGI (HL-60(TB) leukemia) was 16.9 µM and the TGI (M14 melanoma) was 28.3 µM. It also gave a TGI (MOLT-4 leukemia) of 33.9 µM, a TGI (OVCAR-5 ovarian) of 32.4 µM and a TGI (OVCAR-8 ovarian) of 64 µM. For the same compound, the TGI (T-47D breast) was 32.1 µM.

For `CCOC(=O)C1(C(=O)OCC)OC(C)=NC1(C(=O)OC)C(=O)OC`, the TGI (HCC-2998 colon) was greater than 100 µM, the TGI (HL-60(TB) leukemia) was greater than 100 µM and the TGI (IGROV1 ovarian) was greater than 100 µM. For the same compound, the TGI (M14 melanoma) was greater than 100 µM, the TGI (MOLT-4 leukemia) was greater than 100 µM and the TGI (OVCAR-5 ovarian) was greater than 100 µM. The TGI (OVCAR-8 ovarian) was greater than 100 µM and the TGI (T-47D breast) was greater than 100 µM.

`O=C(O)CCSCc1ccccc1` showed a TGI (HCC-2998 colon) greater than 100 µM, a TGI (HL-60(TB) leukemia) greater than 100 µM and a TGI (IGROV1 ovarian) greater than 100 µM. It also gave a TGI (M14 melanoma) greater than 100 µM, a TGI (MOLT-4 leukemia) greater than 100 µM and a TGI (OVCAR-5 ovarian) greater than 100 µM. The TGI (OVCAR-8 ovarian) was greater than 100 µM and the TGI (T-47D breast) was greater than 100 µM.
